Each compound was assayed on MCH receptors (assay: MCH receptor activity class (method not given)). Details: activity class per percent of control at 10^-7 M or IC50.
With CN(C)c1nc(N[C@H]2CC[C@@H](NC(=O)Cc3sc(-c4ccccc4)nc3-c3ccc(Cl)cc3)CC2)nc2c1CCCC2 [compound 1037] the class was 3 (Class 3 The value of percent of control at 10^−7 M was more than 60% or the value of IC50 was more than 200 nM.). With Cc1ccc(S(=O)(=O)n2ccc(C(=O)N[C@H]3CC[C@@H](Nc4nc5c(c(N(C)C)n4)CCCC5)CC3)c2)cc1 [compound 1038] the class was 3 (Class 3 The value of percent of control at 10^−7 M was more than 60% or the value of IC50 was more than 200 nM.). For CN(C)c1nc(N[C@H]2CC[C@@H](NC(=O)c3ccc(-c4cccc([N+](=O)[O-])c4)o3)CC2)nc2c1CCCC2 [compound 1039], the class was 2 (Class 2: The value of percent of control at 10^−7 M was from 40% to 60% or the value of IC′50 was from 50 nM to 200 nM.). For CN(C)c1nc(N[C@H]2CC[C@@H](NC(=O)c3scc(S(C)(=O)=O)c3Cl)CC2)nc2c1CCCC2 [compound 1040], the class was 3 (Class 3 The value of percent of control at 10^−7 M was more than 60% or the value of IC50 was more than 200 nM.). CSc1sc(C(=O)N[C@H]2CC[C@@H](Nc3nc4c(c(N(C)C)n3)CCCC4)CC2)c(Cl)c1S(=O)(=O)C(C)C [compound 1041] was tested, and the class was 3 (Class 3 The value of percent of control at 10^−7 M was more than 60% or the value of IC50 was more than 200 nM.). CSc1sc(C(=O)N[C@H]2CC[C@@H](Nc3nc4c(c(N(C)C)n3)CCCC4)CC2)c(I)c1S(=O)(=O)C(C)C [compound 1042] was tested, and the class was 3 (Class 3 The value of percent of control at 10^−7 M was more than 60% or the value of IC50 was more than 200 nM.). With CN(C)c1nc(N[C@H]2CC[C@@H](NC(=O)c3csc([N+](=O)[O-])c3)CC2)nc2c1CCCC2 [compound 1043] the class was 1 (Class 1: The value of percent of control at 10^−7 M was less than 40% or the value of IC50 was less than 50 nM.). With CN(C)c1nc(N[C@H]2CC[C@@H](NC(=O)c3cc([N+](=O)[O-])cn3C)CC2)nc2c1CCCC2 [compound 1044] the class was 1 (Class 1: The value of percent of control at 10^−7 M was less than 40% or the value of IC50 was less than 50 nM.). With CN(C)c1nc(N[C@H]2CC[C@@H](NC(=O)c3cn(S(=O)(=O)c4ccccc4)c4ccccc34)CC2)nc2c1CCCC2 [compound 1045] the class was 3 (Class 3 The value of percent of control at 10^−7 M was more than 60% or the value of IC50 was more than 200 nM.). CN(C)c1nc(N[C@H]2CC[C@@H](NC(=O)c3ccc([N+](=O)[O-])cc3)CC2)nc2c1CCCC2 [compound 1046] was tested, and the class was 3 (Class 3 The value of percent of control at 10^−7 M was more than 60% or the value of IC50 was more than 200 nM.). For COc1cc([N+](=O)[O-])ccc1C(=O)N[C@H]1CC[C@@H](Nc2nc3c(c(N(C)C)n2)CCCC3)CC1 [compound 1047], the class was 2 (Class 2: The value of percent of control at 10^−7 M was from 40% to 60% or the value of IC′50 was from 50 nM to 200 nM.). CN(C)c1nc(N[C@H]2CC[C@@H](NC(=O)c3ccc(C(F)(F)F)c(F)c3)CC2)nc2c1CCCC2 [compound 1048] was tested, and the class was 3 (Class 3 The value of percent of control at 10^−7 M was more than 60% or the value of IC50 was more than 200 nM.). For CN(C)c1nc(N[C@H]2CC[C@@H](NC(=O)c3ccc([N+](=O)[O-])cc3F)CC2)nc2c1CCCC2 [compound 1049], the class was 3 (Class 3 The value of percent of control at 10^−7 M was more than 60% or the value of IC50 was more than 200 nM.). In the case of Cc1cc(C(=O)N[C@H]2CC[C@@H](Nc3nc4c(c(N(C)C)n3)CCCC4)CC2)cc(C)c1[N+](=O)[O-] [compound 1050], the class is reported as 3 (Class 3 The value of percent of control at 10^−7 M was more than 60% or the value of IC50 was more than 200 nM.). With Cc1cc(C)c(C(=O)C(=O)N[C@H]2CC[C@@H](Nc3nc4c(c(N(C)C)n3)CCCC4)CC2)c(C)c1 [compound 1051] the class was 3 (Class 3 The value of percent of control at 10^−7 M was more than 60% or the value of IC50 was more than 200 nM.). CN(C)c1nc(N[C@H]2CC[C@@H](NC(=O)c3ccc4ncsc4c3)CC2)nc2c1CCCC2 [compound 1054] was tested, and the class was 3 (Class 3 The value of percent of control at 10^−7 M was more than 60% or the value of IC50 was more than 200 nM.). In the case of CN(C)c1nc(N[C@H]2CC[C@@H](NC(=O)c3cc(Cl)ccc3O)CC2)nc2c1CCCC2 [compound 1055], the class is reported as 1 (Class 1: The value of percent of control at 10^−7 M was less than 40% or the value of IC50 was less than 50 nM.). With CSc1ccc(Cl)c(C(=O)N[C@H]2CC[C@@H](Nc3nc4c(c(N(C)C)n3)CCCC4)CC2)c1 [compound 1056] the class was 3 (Class 3 The value of percent of control at 10^−7 M was more than 60% or the value of IC50 was more than 200 nM.). For COc1cccc2cc(C(=O)N[C@H]3CC[C@@H](Nc4nc5c(c(N(C)C)n4)CCCC5)CC3)oc12 [compound 1057], the class was 3 (Class 3 The value of percent of control at 10^−7 M was more than 60% or the value of IC50 was more than 200 nM.). For Cc1cccc(C(=O)N[C@H]2CC[C@@H](Nc3nc4c(c(N(C)C)n3)CCCC4)CC2)c1N [compound 1058], the class was 3 (Class 3 The value of percent of control at 10^−7 M was more than 60% or the value of IC50 was more than 200 nM.). With C=CCSc1ncccc1C(=O)N[C@H]1CC[C@@H](Nc2nc3c(c(N(C)C)n2)CCCC3)CC1 [compound 1059] the class was 3 (Class 3 The value of percent of control at 10^−7 M was more than 60% or the value of IC50 was more than 200 nM.). In the case of CN(C)c1nc(N[C@H]2CC[C@@H](NC(=O)c3cc(C(C)(C)C)c(O)c(C(C)(C)C)c3)CC2)nc2c1CCCC2 [compound 1060], the class is reported as 3 (Class 3 The value of percent of control at 10^−7 M was more than 60% or the value of IC50 was more than 200 nM.). For CN(C)c1nc(N[C@H]2CC[C@@H](CNC(=O)c3ccc(Br)s3)CC2)nc2c1CCCC2 [compound 1061], the class was 3 (Class 3 The value of percent of control at 10^−7 M was more than 60% or the value of IC50 was more than 200 nM.). CN(C)c1nc(N[C@H]2CC[C@@H](CNC(=O)Cc3c(Cl)ccc(Cl)c3Cl)CC2)nc2c1CCCC2 [compound 1062] was tested, and the class was 2 (Class 2: The value of percent of control at 10^−7 M was from 40% to 60% or the value of IC′50 was from 50 nM to 200 nM.). In the case of CN(C)c1nc(N[C@H]2CC[C@@H](CNC(=O)Cc3ccc(F)cc3Cl)CC2)nc2c1CCCC2 [compound 1063], the class is reported as 3 (Class 3 The value of percent of control at 10^−7 M was more than 60% or the value of IC50 was more than 200 nM.). In the case of CN(C)c1nc(N[C@H]2CC[C@@H](CNC(=O)c3ccc(-c4ccc(Cl)cc4[N+](=O)[O-])o3)CC2)nc2c1CCCC2 [compound 1064], the class is reported as 3 (Class 3 The value of percent of control at 10^−7 M was more than 60% or the value of IC50 was more than 200 nM.). With CN(C)c1nc(N[C@H]2CC[C@@H](CNC(=O)c3ccc(Cl)s3)CC2)nc2c1CCCC2 [compound 1065] the class was 3 (Class 3 The value of percent of control at 10^−7 M was more than 60% or the value of IC50 was more than 200 nM.). For CN(C)c1nc(N[C@H]2CC[C@@H](CNC(=O)CCc3ccccc3O)CC2)nc2c1CCCC2 [compound 1067], the class was 3 (Class 3 The value of percent of control at 10^−7 M was more than 60% or the value of IC50 was more than 200 nM.). With CN(C)c1nc(N[C@H]2CC[C@@H](CNC(=O)c3ccc(I)o3)CC2)nc2c1CCCC2 [compound 1068] the class was 3 (Class 3 The value of percent of control at 10^−7 M was more than 60% or the value of IC50 was more than 200 nM.). For CN(C)c1nc(N[C@H]2CC[C@@H](CNC(=O)Cc3ccccc3I)CC2)nc2c1CCCC2 [compound 1069], the class was 3 (Class 3 The value of percent of control at 10^−7 M was more than 60% or the value of IC50 was more than 200 nM.). With CN(C)c1nc(N[C@H]2CC[C@@H](CNC(=O)/C=C/c3cccc([N+](=O)[O-])c3)CC2)nc2c1CCCC2 [compound 1070] the class was 2 (Class 2: The value of percent of control at 10^−7 M was from 40% to 60% or the value of IC′50 was from 50 nM to 200 nM.). In the case of CN(C)c1nc(N[C@H]2CC[C@@H](CNC(=O)c3ccccc3Cc3ccccc3)CC2)nc2c1CCCC2 [compound 1072], the class is reported as 3 (Class 3 The value of percent of control at 10^−7 M was more than 60% or the value of IC50 was more than 200 nM.). With CN(C)c1nc(N[C@H]2CC[C@@H](CNC(=O)C(c3ccc(Cl)cc3)c3ccc(Cl)cc3)CC2)nc2c1CCCC2 [compound 1073] the class was 3 (Class 3 The value of percent of control at 10^−7 M was more than 60% or the value of IC50 was more than 200 nM.). For Cc1ccc(-c2ccc(C(=O)NC[C@H]3CC[C@@H](Nc4nc5c(c(N(C)C)n4)CCCC5)CC3)o2)c([N+](=O)[O-])c1 [compound 1074], the class was 3 (Class 3 The value of percent of control at 10^−7 M was more than 60% or the value of IC50 was more than 200 nM.). With CN(C)c1nc(N[C@H]2CC[C@@H](CNC(=O)c3ccc([N+](=O)[O-])s3)CC2)nc2c1CCCC2 [compound 1075] the class was 3 (Class 3 The value of percent of control at 10^−7 M was more than 60% or the value of IC50 was more than 200 nM.). In the case of Cc1cc(C(=O)NC[C@H]2CC[C@@H](Nc3nc4c(c(N(C)C)n3)CCCC4)CC2)ccc1[N+](=O)[O-] [compound 1076], the class is reported as 3 (Class 3 The value of percent of control at 10^−7 M was more than 60% or the value of IC50 was more than 200 nM.). For COc1cc(C(=O)NC[C@H]2CC[C@@H](Nc3nc4c(c(N(C)C)n3)CCCC4)CC2)ccc1[N+](=O)[O-] [compound 1077], the class was 3 (Class 3 The value of percent of control at 10^−7 M was more than 60% or the value of IC50 was more than 200 nM.). With CN(C)c1nc(N[C@H]2CC[C@@H](CNC(=O)c3cn(Cc4ccccc4)c4ccccc34)CC2)nc2c1CCCC2 [compound 1078] the class was 3 (Class 3 The value of percent of control at 10^−7 M was more than 60% or the value of IC50 was more than 200 nM.). With CN(C)c1nc(N[C@H]2CC[C@@H](CNC(=O)CC3=CCCCC3)CC2)nc2c1CCCC2 [compound 1079] the class was 3 (Class 3 The value of percent of control at 10^−7 M was more than 60% or the value of IC50 was more than 200 nM.). In the case of CN(C)c1nc(N[C@H]2CC[C@@H](CNC(=O)Cc3ccccc3OC(F)(F)F)CC2)nc2c1CCCC2 [compound 1081], the class is reported as 3 (Class 3 The value of percent of control at 10^−7 M was more than 60% or the value of IC50 was more than 200 nM.). With Cc1cc(C(=O)NC[C@H]2CC[C@@H](Nc3nc4c(c(N(C)C)n3)CCCC4)CC2)cc(C)c1OCc1ccccc1 [compound 1082] the class was 3 (Class 3 The value of percent of control at 10^−7 M was more than 60% or the value of IC50 was more than 200 nM.).

From patent publication US20050197350A1, “Novel quinoline, tetrahydroquinazoline, and pyrimidine derivatives and methods of treatment related to the use thereof” (TAISHO PHARMACEUTICAL CO., LTD., priority 2003, published 2005)
